# Laboratory results reported in patent publication US9828379B2 (priority 2013, dated 2017).
# Experiments:
# [1] = target: T1, FAAH (Mus musculus, UniProt O08914); test: In vitro competitive activity-based protein profiling (Table 2, % inhibition at 1 μM); format: biochemical; settings: read-out: % Inhibition at 1 μM FAAH
# T1 sequence (O08914 1-579): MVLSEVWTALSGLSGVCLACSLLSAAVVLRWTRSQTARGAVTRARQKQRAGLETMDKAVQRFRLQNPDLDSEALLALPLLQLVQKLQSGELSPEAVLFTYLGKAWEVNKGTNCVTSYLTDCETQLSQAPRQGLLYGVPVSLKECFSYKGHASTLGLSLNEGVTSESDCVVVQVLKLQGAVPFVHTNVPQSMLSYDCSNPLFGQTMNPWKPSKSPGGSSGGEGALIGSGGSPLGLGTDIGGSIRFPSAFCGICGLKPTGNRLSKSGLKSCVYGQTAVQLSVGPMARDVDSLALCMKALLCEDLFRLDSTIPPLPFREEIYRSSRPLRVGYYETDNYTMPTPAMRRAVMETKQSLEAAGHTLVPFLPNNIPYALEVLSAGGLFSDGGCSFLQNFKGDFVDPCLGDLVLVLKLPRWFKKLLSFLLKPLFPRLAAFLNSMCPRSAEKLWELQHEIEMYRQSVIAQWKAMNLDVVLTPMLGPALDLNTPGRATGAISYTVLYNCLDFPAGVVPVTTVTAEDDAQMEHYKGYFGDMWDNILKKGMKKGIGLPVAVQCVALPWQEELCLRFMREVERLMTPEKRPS
# [2] = target: T2, ABHD6 (Mus musculus, UniProt Q8R2Y0); test: as above; format: biochemical; settings: read-out: % Inhibition at 1 μM ABHD6
# T2 sequence (Q8R2Y0 1-336): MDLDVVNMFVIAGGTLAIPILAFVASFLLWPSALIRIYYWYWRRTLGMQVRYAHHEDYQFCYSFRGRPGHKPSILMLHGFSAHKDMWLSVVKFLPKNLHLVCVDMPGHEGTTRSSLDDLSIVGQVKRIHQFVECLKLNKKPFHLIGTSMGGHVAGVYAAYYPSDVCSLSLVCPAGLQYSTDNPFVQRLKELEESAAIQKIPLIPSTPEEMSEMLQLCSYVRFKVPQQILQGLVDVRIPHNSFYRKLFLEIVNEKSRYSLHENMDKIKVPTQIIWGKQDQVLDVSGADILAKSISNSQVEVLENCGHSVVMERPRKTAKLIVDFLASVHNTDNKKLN
# [3] = target: T3, MAGL (Mus musculus, UniProt O35678); test: as above; format: biochemical; settings: read-out: % Inhibition at 1 μM MAGL
# T3 sequence (O35678 1-303): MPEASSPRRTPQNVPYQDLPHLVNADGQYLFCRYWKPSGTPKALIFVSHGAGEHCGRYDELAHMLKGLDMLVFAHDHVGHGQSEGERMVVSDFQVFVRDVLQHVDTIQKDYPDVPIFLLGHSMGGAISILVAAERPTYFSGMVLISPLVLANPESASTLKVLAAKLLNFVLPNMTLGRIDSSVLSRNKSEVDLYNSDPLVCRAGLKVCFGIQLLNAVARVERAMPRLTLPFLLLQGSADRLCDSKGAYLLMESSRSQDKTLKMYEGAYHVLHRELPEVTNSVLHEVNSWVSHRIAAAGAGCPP
# Description: After 30 min, FP—Rh (1.0 μL, 50 μM in DMSO) was added and the mixture was incubated for another 30 min at 37° C. Reactions were quenched with SDS loading buffer (50 μL-4×) and run on SDS-PAGE.
# Cell lysates were diluted with mock proteomes for use in competitive ABPP experiments.
# [4] = system: Trypanosoma brucei; test: Alamar Blue assay against Trypanosoma brucei; format: cell-based; settings: read-out: IC50 T. brucei
# Text: The ability of disclosed compounds to inhibit Trypanosoma brucei (T. brucei) can be assessed using the Alamar Blue® assay (Räz et al., 1997. The Alamar Blue® assay to determine drug sensitivity of African trypanosomes (T.b. rhodesiense and T.b. gambiense) in vitro. Acta Tropica 68, 139-147). Bloodstream form trypanosomes are cultivated in Minimum Essential Medium (MEM). Standard curves can be generated by serially diluting T. brucei in culture medium and measuring fluorescence and absorbance after a period of incubation with Alamar Blue®. A drug sensitivity assay can be performed as described for the LILIT (long incubation low inoculation test) previously described (Brun and Lun, 1994. Drug sensitivity of Chinese Trypanosoma evansi and Trypanosoma equiperdum isolates. Vet. Parasitol. 52, 37-46) with minor modifications. Briefly, bloodstream form trypanosomes can be inoculated into microtiter plates and incubated in the presence of various disclosed compound concentrations for a period of time. Background fluorescence and absorbance of the drug-containing medium are determined for each drug dilution. Wells without drug serve as controls. Alamar Blue® is added after a period of time and fluorescence and colorimetric development is later determined.
# [5] = system: Mycobacterium tuberculosis H37Rv (pFCA-luxAB); test: microbe, parasite or virus in culture; format: cell-based; settings: for inhibition at 100 µM: read-out: % Inhibition at 100 μM Mtb LORA
# [6] = system: Mycobacterium Tuberculosis (Mtb); test: Microplate Alamar Blue assay (MABA) against Mtb; format: cell-based
# Description: The activity of disclosed compounds against Mtb can be assessed according to a method based on the microplate Alamar Blue® assay (MABA) (Collins and Franzblau, 1997. Microplate alamar blue assay versus BACTEC 460 system for high-throughput screening of compounds against Mycobacterium tuberculosis and Mycobacterium avium. Antimicrobial Agents and Chemotherapy 41, 1004-1009). Briefly, stock solutions of disclosed compounds are prepared and added to, for example, two wells of a microplate. One well is inoculated with broth containing Mtb. The second well receives only media in order to assess background fluorescence. For MICs, serial dilutions are performed in media. Each microplate is incubated for a period of time. After incubation, one control growth is developed with a mixture of Alamar Blue® solution and Tween 80. The plates are then reincubated. Afterwards, if the well turns pink, the dye mixture is placed into all wells and the plates are reincubated for an additional period of time. The mean fluorescence units (FU) of media-only wells are subtracted from all other wells. The results are expressed in terms of % inhibition defined as 1-(test well FU/mean FU of triplicate bacteria-only wells)×100. The MIC is defined as the lowest concentration effecting a reduction in fluorescence of ≧90% relative to bacteria-only controls.
# [7] = target: T2, ABHD6; test: biochemical; settings: in vitro competitive ABPP
# [8] = target: T1, FAAH; test: biochemical; settings: in vitro competitive ABPP
# [9] = target: T3, MAGL; test: biochemical; settings: mouse; in vitro competitive ABPP; read-out: Mouse (IC50 value, nM) MAGL
# [10] = target: T4, Mouse brain MAGL (Mus musculus, UniProt O35678); test: Mouse brain proteomes from inhibitor treated mice (oral gavage, ABPP analysis); format: in vivo; settings: p.o., sacrificed 4 h following administration
# T4 construct: from tissue; host or cells: brain of wild-type C57Bl/6J mice dosed by oral gavage
# T4 sequence (O35678 1-303): T3 sequence (O35678 1-303)
SMILES,inhibition at 1 µM [1] [%],inhibition at 1 µM [2] [%],inhibition at 1 µM [3] [%],IC50 [4] [µM],inhibition at 100 µM [5] [%],MIC [6] [µM],MIC ([5]; read-out: MIC Mtb LORA) [µM],IC50 [7] [nM],IC50 [8] [nM],IC50 [9] [nM],inhibition at 5 mg/kg [10] [%]
"O=C(ON1C(=O)CCC1=O)N1CC2CN(Cc3ccc(Cl)cc3N3CCC4(CCOCC4)C3)CC2C1 (stereo not shown) [Example 106, 2,5-Dioxopyrrolidin-1-yl 5-[(4-chloro-2-[8-oxa-2-azaspiro[4.5]decan-2-yl]phenyl)methyl]-octahydropyrrolo[3,4-c]pyrrole-2-carboxylate]",< 25,< 25,25 to 75,< 5,–,–,–,–,–,–,–
"CNC(=O)C(OC(=O)N1CC2CN(Cc3ccc(-c4ccccc4)cc3)CC2C1)C(F)(F)F (stereo not shown) [Example 126, 2,2,2-Trifluoro-1-(methylcarbamoyl)ethyl 5-[(4-phenylphenyl)methyl]-octahydropyrrolo[3,4-c]pyrrole-2-carboxylate]",25 to 75,< 25,25 to 75,–,> 80,51 to 100,–,–,–,–,–
"O=C(OC(C(F)(F)F)C(F)(F)F)N1CC2CN(Cc3ccc(-c4ccccc4)cc3)CC2C1 (stereo not shown) [Example 9, 1,1,1,3,3,3-Hexafluoropropan-2-yl 5-[(4-phenylphenyl)methyl]-octahydropyrrolo[3,4-c]pyrrole-2-carboxylate]",25 to 75,25 to 75,> 75,–,> 80,≤ 50,≤ 50,–,–,–,–
"O=C(ON1C(=O)CCC1=O)N1CC2CN(C(c3ccc(Cl)cc3)c3ccc(Cl)cc3)CC2C1 (stereo not shown) [Example 83, 2,5-Dioxopyrrolidin-1-yl 5-[bis(4-chlorophenyl)methyl]-octahydropyrrolo[3,4-c]pyrrole-2-carboxylate]",< 25,< 25,25 to 75,–,> 80,≤ 50,–,–,–,–,–
"CNC(=O)C(OC(=O)N1CC2CN(C(c3ccc(Cl)cc3)c3ccc(Cl)cc3)CC2C1)C(F)(F)F (stereo not shown) [Example 125, 2,2,2-Trifluoro-1-(methylcarbamoyl)ethyl 5-[bis(4-chlorophenyl)methyl]-octahydropyrrolo[3,4-c]pyrrole-2-carboxylate]",< 25,< 25,25 to 75,–,> 80,≤ 50,–,–,–,–,–
"O=C(ON1C(=O)CCC1=O)N1CC2CN(Cc3ccc(-c4ccccc4)cc3)CC2C1 (stereo not shown) [Example 84, 2,5-Dioxopyrrolidin-1-yl 5-[(4-phenylphenyl)methyl]-octahydropyrrolo[3,4-c]pyrrole-2-carboxylate]",> 75,25 to 75,> 75,–,> 80,51 to 100,–,–,–,–,–
"CCn1cc(CN2CC3CN(C(=O)OC(C(F)(F)F)C(F)(F)F)CC3C2)c(-c2ccc(N3CCC3)cc2)n1 (stereo not shown) [Example 69, 1,1,1,3,3,3-Hexafluoropropan-2-yl 5-([3-[4-(azetidin-1-yl)phenyl]-1-ethyl-1H-pyrazol-4-yl]methyl)-octahydropyrrolo[3,4-c]pyrrole-2-carboxylate]",< 25,25 to 75,> 75,–,–,–,–,1000 to 10000,1000 to 10000,< 100,≤ 25
"CCn1cc(CN2CC3CN(C(=O)OC(C(F)(F)F)C(F)(F)F)CC3C2)c(-c2cccnc2)n1 (stereo not shown) [Example 71, 1,1,1,3,3,3-Hexafluoropropan-2-yl 5-[[1-ethyl-3-(pyridin-3-yl)-1H-pyrazol-4-yl]methyl]-octahydropyrrolo[3,4-c]pyrrole-2-carboxylate]",< 25,25 to 75,> 75,–,–,–,–,1000 to 10000,1000 to 10000,< 100,25 to 75
"CS(=O)(=O)N1CCN(c2cc(Cl)ccc2CN2CC3CN(C(=O)OC(C(F)(F)F)C(F)(F)F)CC3C2)CC1 (stereo not shown) [Example 36, 1,1,1,3,3,3-Hexafluoropropan-2-yl 5-[[4-chloro-2-(4-methanesulfonylpiperazin-1-yl)phenyl]methyl]-octahydropyrrolo[3,4-c]pyrrole-2-carboxylate]",< 25,25 to 75,> 75,–,–,–,–,100 to 1000,1000 to 10000,< 100,25 to 75
"CCn1cc(CN2CC3CN(C(=O)OC(C(F)(F)F)C(F)(F)F)CC3C2)c(C(=O)NCc2ccccc2)n1 (stereo not shown) [Example 78, 1,1,1,3,3,3-Hexafluoropropan-2-yl 5-((3-(benzylcarbamoyl)-1-ethyl-1H-pyrazol-4-yl)methyl)hexahydropyrrolo[3,4-c]pyrrole-2(1H)-carboxylate]",< 25,25 to 75,> 75,–,–,–,–,1000 to 10000,> 10000,< 100,25 to 75
